Columns and labels:
IL-6 = IL-6 induction in sera of CDN-treated mice, ELISA (Example 3); type: in vivo, mouse; conditions: 10 mg/kg i.v., 4 h post-treatment, FIG. 6
Excerpt: Interleukin-6 was quantified using an enzyme-linked immunoassay (ELISA) according to the manufacturer's instructions (R&D Systems).
(§1) • Species evaluated: mouse • Cyclic dinucleotides tested: CL604, CL606, CL609, CL611 and CL614 • Reference compound: c-AIMP and saline • Cytokines evaluated: IFN-α/β (using RAW ISG54 reporter cells) and IL-6 (by ELISA)
(§2) Twenty-one mice (Swiss; female; mean age: 8 weeks) were divided into seven groups of three: one group served as control (saline) and the other six groups were each treated with a cyclic dinucleotide (either c-AIMP, CL604, CL606, CL609, CL611 or CL614). On Day −7, blood samples for basal cytokine levels were collected from all mice and stored at −20° C. until analysis. On Day 1, the mice were treated with either 200 μL of physiologic serum (containing 0.9% NaCl) or 200 μL of a solution of a cyclic dinucleotide (dose: 10 mg/kg) in physiologic serum (containing 0.9% NaCl), by intravenous (i.v.) injection. Blood samples were collected from the mice at 4 h post-injection, and then stored at −20° C. until analysis. Cytokine induction was measured in the sera from the blood samples.

Type I interferons = assay: Type I interferon induction in sera of CDN-treated mice (Example 3); type: in vivo, mouse; conditions: 10 mg/kg i.v., 4 h post-treatment, FIG. 5
Excerpt: as §1, §2

Panc02 pancreatic tumors = assay: Orthotopic Panc02 pancreatic tumors in mice, intercalated combinations (Example 8); type: in vivo, mouse; conditions: for mean tumor volume: Day 30, CDN 5 mg/kg i.t. Day 9, i.v. Days 16, 23, gemcitabine 100 mg/kg i.p. Days 12, 19, 26; for # Mice with metastases / Average # metastases per mouse: Day 30 post-implantation, CDN 5 mg/kg, gemcitabine 100 mg/kg i.p.
Protocol: • Species evaluated: mouse • Tumor model: Panc02 • Treatment tested: intercalated combinations of a CDN (either CL592, CL614 or CL656) and gemcitabine • Reference compounds: gemcitabine, CL592, CL614 and CL656 • Parameters evaluated: tumor growth, and incidence of metastases
On Day 1, 55 mice (C57/BL6; male; 10 weeks old; 23 g to 25 g) each received an intrapancreatic injection of Panc02 cells (1×10^6 cells in 50 μL serum-free medium).
Day 9: Groups 3 to 8 each received an intratumoral injection of the appropriate CDN (CL592, CL614 or CL656, respectively; 50 μL; 5 mg/kg in 0.9% saline)
Day 12: Group 2 and Groups 6 to 8 each received an intraperitoneal injection of gemcitabine (200 μL; 100 mg/kg in 0.9% saline)
Day 16: Groups 3 to 8 each received an intravenous injection of the appropriate CDN (CL592, CL614 or CL656, respectively; 50 μL; 5 mg/kg in 0.9% saline)
Day 19: Group 2 and Groups 6 to 8 were treated as on Day 12.
Day 23: Groups 3 to 8 were treated as on Day 16.
Day 26: Group 2 and Groups 6 to 8 were treated as on Days 12 and 19.
Day 30: Each mouse was checked for tumor presence and metastases.

Panc02 tumors = assay: Murine model of orthotopic Panc02 pancreatic tumors (Example 4); type: in vivo, mouse; conditions: for INCIDENCE OF METASTASIS / PRE-SACRIFICE MORTALITY: Day 34
Excerpt: • Species evaluated: mouse • Tumor model: Panc02 (murine pancreatic tumor cell line) • Treatments tested: gemcitabine monotherapy, c-AIMP monotherapy, and gemcitabine combined with c-AIMP • Clinical parameters evaluated: tumor volume, incidence of metastasis and mortality • Administration routes evaluated: intravenous (i.v.) or intratumoral (i.t.) injection (depending on experiment) • On Day 1, 30 mice (C57BL/6; male) received an orthotopic injection of Panc02 tumor cells (1×10^6) in their pancreas. The mice were then divided into six groups of five animals. Each group received a different treatment, as outlined below: • Group 1: saline (by i.v. injection) on Days 7, 10, 14, 17, 21 and 24; • Group 2: gemcitabine monotherapy (100 mg/kg; i.p.); on Days 7, 10, 14, 17, 21 and 24; • Group 3: c-AIMP monotherapy (25 mg/kg; i.t.) on Days 7 and 21; • Group 4: c-AIMP monotherapy (25 mg/kg; i.v.) on Days 7, 14 and 21; • Group 5: c-AIMP (25 mg/kg; i.t.) followed (5 h later) by gemcitabine (100 mg/kg; i.p.) on Day 7; and gemcitabine (100 mg/kg; i.p.) on Days 10, 14, 17, 21 and 24; • Group 6: c-AIMP (25 mg/kg; i.v.) followed (5 h later) by gemcitabine (100 mg/kg; i.p.) on Day 7; and gemcitabine (100 mg/kg; i.p.) on Days 10, 14, 17, 21 and 24;
At days 7, 21/24, 28 and 34, the mice were assessed for tumor volume, incidence of metastasis and mortality.

DT6606 pancreatic tumors = conditions: Day 36 vs pre-treatment tumor volume; CL592 i.t. Day 13, 5 mg/kg i.v. Days 20, 27; gemcitabine 100 mg/kg i.p. Days 16, 23, 30
Protocol: • Tumor line evaluated: DT6606 (Partecke, 2011) • Treatment tested: intercalated combination of CL592 and gemcitabine • Reference compound: gemcitabine • Parameter evaluated: tumor growth
On Day 1, 20 mice (C57/BL6; female; 10 weeks old; 18 g to 22 g) received an intrapancreatic injection of DT6606 cells (5×10^5 cells in 30 μL serum-free medium). One mouse was sacrificed before treatment due to a renal deformation.
The groups were then treated according to the treatment regimen below.
Day 13: Groups 1 and 2 received an intratumoral injection of saline solution (50 μL), and Groups 3 and 4, an intratumoral injection of CL592 (50 μL; 2.5 mg/mL in saline buffer;).
Day 16: Groups 2 and 4 received an intraperitoneal tail injection of gemcitabine (100 μL solution/100 g body mass; 10 mg/mL in saline buffer; dose: 100 mg/kg).
Day 20: Groups 3 and 4 received an intravenous tail injection of CL592 (200 μL; 0.5 mg/mL in saline buffer; dose: 5 mg/kg).
Day 23: Groups 2 and 4 were treated as on Day 16.
Day 27: Groups 3 and 4 were treated as on Day 20.
Day 30: Groups 2 and 4 were treated as on Days 16 and 23.
Day 36: Each mouse was checked for tumor presence. The volume of each observed tumor was measured and the mice were then sacrificed.
Tumor growth (expressed as a percentage) was calculated as follows:
(([tumor volume at day 36]−[pre-treatment tumor volume])/[pre-treatment tumor volume])×100%

PC-1.0 tumors = assay: Hamster model of orthotopic PC-1.0 pancreatic tumors (Example 5); type: in vivo; conditions: gemcitabine monotherapy 50 mg/Kg i.p.
Excerpt: • Species evaluated: hamster • Tumor model: PC-1.0 (hamster pancreatic tumor cell line (Egami, Tomioka, Tempero, Kay, & Pour, 1991)) • Treatments tested: gemcitabine monotherapy, and gemcitabine combined with c-AIMP • Clinical parameters evaluated: tumor volume, incidence of metastasis and mortality • Administration routes evaluated: intravenous (i.v.) vs. intratumoral (i.t.) injection (depending on experiment) for CL592 • On Day 1, 22 hamsters (Golden Syrian) received an orthotopic injection of PC-1.0 tumor cells (1×10^6) in the tail of their pancreas. The hamsters were then divided into four groups of five or six animals. Each group received a different treatment, as outlined below: • Group 1 (n=5) received saline (by i.v. injection) on Days 8, 15 and 22; • Group 2 (n=6): c-AIMP (25 mg/Kg; i.v.) followed by gemcitabine (50 mg/Kg; i.p.) on Day 8; and gemcitabine (50 mg/Kg; i.p.) on Days 15 and 22; • Group 3 (n=6): c-AIMP (25 mg/Kg; i.t.) followed by gemcitabine (50 mg/Kg; i.p.) on Day 8; and gemcitabine (50 mg/Kg; i.p.) on Days 15 and 22; • Group 4 (n=5): gemcitabine monotherapy (50 mg/Kg; i.p.) at Days 8, 15 and 22.
At days 8, 21/24, 28 and 34, the mice were assessed for tumor volume, incidence of metastasis and mortality.

[1] = c-AIMP 25 mg/kg i.t., alone or with gemcitabine 100 mg/kg i.p.
[2] = c-AIMP 25 mg/kg i.v., alone or with gemcitabine 100 mg/kg i.p.
[3] = gemcitabine monotherapy 100 mg/kg i.p.

In the case of `Nc1ncnc2c1ncn2C1OC2COP(=O)(O)O[C@H]3C(n4cnc5c(=O)[nH]cnc54)OC(COP(=O)(O)O[C@@H]1[C@@H]2O)[C@H]3O` (stereo partly drawn) [CL611, (2′,2′)c-AIMP], the “induction of IL-6 in sera” value (IL-6) was “all of the cyclic dinucleotides except CL611 induced IL-6” and the “induction of Type I interferons in sera” value (Type I interferons) was “all of the tested cyclic dinucleotides except CL611 strongly induced Type I interferons”.

With `Nc1ncnc2c1ncn2C1OC2COP(=O)(O)O[C@@H]3C(COP(=O)(O)O[C@H]2[C@H]1F)OC(n1cnc2c(=O)[nH]cnc21)[C@@H]3F` (stereo partly drawn) [CL614, c-(2′FdAMP-2′FdIMP)] the mean tumor volume (Panc02 pancreatic tumors) was 318.6 mm^3, the “# Mice with metastases” value (Panc02 pancreatic tumors) was 40% (2/5) and the “Average # metastases per mouse” value (Panc02 pancreatic tumors) was 5.

`Nc1ncnc2c1ncn2[C@@H]1O[C@@H]2COP(=O)(O)O[C@H]3[C@@H](O)[C@H](n4cnc5c(=O)[nH]cnc54)O[C@@H]3COP(=O)(O)O[C@H]2[C@H]1O` [CL592, c-AIMP] was tested, and the mean tumor volume (Panc02 pancreatic tumors) was 231.0 mm^3, the “# Mice with metastases” value (Panc02 pancreatic tumors) was 20% (1/5) and the “Average # metastases per mouse” value (Panc02 pancreatic tumors) was 2. For the same molecule, the “INCIDENCE OF METASTASIS” value (Panc02 tumors; [1]) was 0%, the “PRE-SACRIFICE MORTALITY” value (Panc02 tumors; [1]) was 0% and the “INCIDENCE OF METASTASIS” value (Panc02 tumors; [2]) was 0%. For the same molecule, the “PRE-SACRIFICE MORTALITY” value (Panc02 tumors; [2]) was 0% and the reducing tumor growth (Panc02 tumors; FIG. 7, c-AIMP 25 mg/kg i.v. or i.t., comparison among all treatments) was “most effective ones at reducing tumor growth”.

With `Nc1ccn([C@@H]2O[C@H](CO)[C@@H](O)C2(F)F)c(=O)n1` [gemcitabine, Gemcitabine] the mean tumor growth (DT6606 pancreatic tumors) was 22%, the mean tumor volume (Panc02 pancreatic tumors) was 380.7 mm^3 and the “# Mice with metastases” value (Panc02 pancreatic tumors) was 88% (7/8). The “Average # metastases per mouse” value (Panc02 pancreatic tumors) was 13, the “INCIDENCE OF METASTASIS” value (Panc02 tumors; [3]) was 50% and the “PRE-SACRIFICE MORTALITY” value (Panc02 tumors; [3]) was 20%. The “PRE-SACRIFICE MORTALITY” value (Panc02 tumors; gemcitabine monotherapy 100 mg/kg i.p., listed as GemC) was 20%, the “INCIDENCE OF METASTASES” value (PC-1.0 tumors) was 100% and the “NUMBER OF METASTASES PER HAMSTER, Hamster 1” value (PC-1.0 tumors) was 13. For the same molecule, the “NUMBER OF METASTASES PER HAMSTER, Hamster 2” value (PC-1.0 tumors) was 15, the “NUMBER OF METASTASES PER HAMSTER, Hamster 3” value (PC-1.0 tumors) was 3 and the “NUMBER OF METASTASES PER HAMSTER, Hamster 4” value (PC-1.0 tumors) was 10. For the same molecule, the “NUMBER OF METASTASES PER HAMSTER, Hamster 5” value (PC-1.0 tumors) was 5 and the “INCIDENCE OF METASTASES” value (PC-1.0 tumors; listed as GemC) was 100%.

`Nc1ncnc2c1ncn2C1OC2COP(=O)(S)O[C@@H]3C(COP(=O)(S)O[C@H]2[C@H]1F)OC(n1cnc2c(=O)[nH]cnc21)[C@@H]3F` (mixture of isomers) [CL656, c-[2′FdAMP(S)-2′FdIMP(S)]] was tested, and the mean tumor volume (Panc02 pancreatic tumors) was 340.2 mm^3, the “# Mice with metastases” value (Panc02 pancreatic tumors) was 40% (2/5) and the “Average # metastases per mouse” value (Panc02 pancreatic tumors) was 3.

From patent US20170340658A1, “COMBINED USE OF A CHEMOTHERAPEUTIC AGENT AND A CYCLIC DINUCLEOTIDE FOR CANCER TREATMENT” (INVIVOGEN, priority 2014, published 2017)
